# Patent publication US6858217B2, “Stabilization of terpenoids in cosmetic compositions” (Unilever Home & Personal Care USA division of Conopco, Inc., priority 2002, dated 2005)
# Legend:
# [1] = Storage stability of limonene in skin lotion, GC/HS; conditions: for initial GC/HS: skin lotion with 1.0% fragrance (limonene 20%)
# Excerpt: (§1) The stability of terpenoid components of typical fragrances was examined in skin care formulations containing 4-substituted resorcinol derivatives to determine the resorcinol's effectiveness toward preventing degradation and loss of terpenoid upon storage. Two terpenoid components, limonene and linalool, were formulated as part of a fragrance in standard skin care lotions containing BHT (a standard antioxidant), unsubstituted resorcinol, 4-ethyl resorcinol and 4-hexyl resorcinol. The stability of these fragrance components was measured using GC/HS analysis to determine the loss of each terpenoid molecule with time as stored under typical consumer product storage conditions storage (5-month storage at 40° C. and in the sun at Room Temperature [RT]). The loss of limonene and linalool in a standard formulation containing no “anti-oxidants” was directly compared to loss of these materials with both BHT, unsubstituted resorcinol and the 4-substituted resorcinol derivatives.
# (§2) With reference to the data in the Tables below, GC/HS measurements were taken on an Agilent 6890 GC/5973 MS using a Gerstel MPS2 Headspace Sampler. The samples were incubated at 35° C. for one hour and then 2.50 mL of the headspace above the sample was injected onto a Agilent Technologies number 19091S-433, HP-5MS, 5% Phenyl Methyl Siloxane column which has a 30 m×0.25 mm ID with a 0.25 μm film thickness. The GC data is recorded as peak area count for the two fragrance components.
# (§3) The formulations in the Table below were prepared in accordance with the method set forth in Example 1 hereinabove.
# [2] = Storage stability of linalool in skin lotion, GC/HS; conditions: for initial GC/HS: skin lotion with 1.0% fragrance (linalool 20%)
# Excerpt: as §1, §2, §3
# [3] = Overall stabilization of terpenoid fragrance components in skin lotion; assay type: physicochemical; conditions: limonene and linalool in skin lotions, 5-month storage (sun RT, 40° C.)
# Excerpt: In most cases, the “control” formulation without anti-oxidants or the control with the unsubstituted resorcinol lost twice as much limonene and/or linalool as those formulations containing the 4-substituted resorcinols.
# [4] = 5-month storage in the sun at RT
SMILES,40° C. 5-months GC/HS ([1]; 5-month storage at 40° C.) [peak area count],40° C. % Loss ([1]; 5-month storage at 40° C.) [%],"Sun 5-months GC/HS [1, 4] [peak area count]","Sun % Loss [1, 4] [%]",initial GC/HS [1] [peak area count],40° C. 5-months GC/HS ([2]; 5-month storage at 40° C.) [peak area count],40° C. % Loss ([2]; 5-month storage at 40° C.) [%],"Sun 5-months GC/HS [2, 4] [peak area count]","Sun % Loss [2, 4] [%]",initial GC/HS [2] [peak area count],40° C. % Stabilization ([1]; 5-month storage at 40° C.) [%],"Sun % Stabilization [1, 4] [%]",40° C. % Stabilization ([2]; 5-month storage at 40° C.) [%],"Sun % Stabilization [2, 4] [%]",stabilizing terpenoid molecules against degradation [3]
"CCc1ccc(O)cc1O [4-EthylResorcinol, 4-ethyl resorcinol]",46790409,12.9,54753996,0,54736538,2292953,30.2,2650924,19.4,3288967,,,,,
"CCCCCCc1ccc(O)cc1O [4-HexylResorcinol, 4-hexyl resorcinol]",3381932,18.5,34662250,7.7,40778538,1466948,10.2,1666185,7.5,2222930,,,,,
"Cc1cc(C(C)(C)C)c(O)c(C(C)(C)C)c1 [BHT Sample, BHT]",26286287,31.7,32465677,15.3,38342803,4918953,28.2,4678449,31.4,6853529,35,48,29,16.5,
Oc1cccc(O)c1 [Resorcinol],19260141,57.6,25743642,43.4,45478209,4286137,29.6,3856563,36.7,6088780,,,,,little to no stabilization
